Each molecule was assayed against USP1 (construct USP1 (I-785, GG670, 671AA)/UAF1 (I-677)-Flag) (Homo sapiens (Human), UniProt O94782, G670A/G671A) (assay: Ubiquitin-Rhodamine 110 assay for USP1 activity). Settings: USP1/UAF1 25 pM, Ub-Rh110 25 nM, 30 min preincubation.
USP1 (construct USP1 (I-785, GG670, 671AA)/UAF1 (I-677)-Flag), sequence (O94782 whole entry G670A/G671A): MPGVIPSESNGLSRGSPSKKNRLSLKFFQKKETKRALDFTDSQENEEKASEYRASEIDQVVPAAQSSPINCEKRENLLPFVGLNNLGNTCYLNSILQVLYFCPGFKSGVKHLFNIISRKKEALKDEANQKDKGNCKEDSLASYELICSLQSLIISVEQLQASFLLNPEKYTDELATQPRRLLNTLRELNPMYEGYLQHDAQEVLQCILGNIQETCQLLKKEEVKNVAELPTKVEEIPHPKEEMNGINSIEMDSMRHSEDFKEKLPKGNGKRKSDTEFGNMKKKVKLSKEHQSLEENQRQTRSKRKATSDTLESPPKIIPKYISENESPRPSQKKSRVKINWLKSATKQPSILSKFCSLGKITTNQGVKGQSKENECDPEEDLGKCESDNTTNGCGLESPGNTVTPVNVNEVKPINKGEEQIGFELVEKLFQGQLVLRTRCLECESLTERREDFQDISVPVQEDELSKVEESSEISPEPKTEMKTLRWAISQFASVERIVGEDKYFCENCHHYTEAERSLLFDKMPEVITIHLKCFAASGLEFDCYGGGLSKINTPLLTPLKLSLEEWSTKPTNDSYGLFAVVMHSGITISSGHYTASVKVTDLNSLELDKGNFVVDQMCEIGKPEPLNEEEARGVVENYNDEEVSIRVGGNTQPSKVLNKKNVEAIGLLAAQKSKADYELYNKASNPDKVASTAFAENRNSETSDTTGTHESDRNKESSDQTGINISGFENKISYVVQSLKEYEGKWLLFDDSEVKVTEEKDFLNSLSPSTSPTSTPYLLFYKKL
USP1 (construct USP1 (I-785, GG670, 671AA)/UAF1 (I-677)-Flag), sequence (Q8TAF3 whole entry partner): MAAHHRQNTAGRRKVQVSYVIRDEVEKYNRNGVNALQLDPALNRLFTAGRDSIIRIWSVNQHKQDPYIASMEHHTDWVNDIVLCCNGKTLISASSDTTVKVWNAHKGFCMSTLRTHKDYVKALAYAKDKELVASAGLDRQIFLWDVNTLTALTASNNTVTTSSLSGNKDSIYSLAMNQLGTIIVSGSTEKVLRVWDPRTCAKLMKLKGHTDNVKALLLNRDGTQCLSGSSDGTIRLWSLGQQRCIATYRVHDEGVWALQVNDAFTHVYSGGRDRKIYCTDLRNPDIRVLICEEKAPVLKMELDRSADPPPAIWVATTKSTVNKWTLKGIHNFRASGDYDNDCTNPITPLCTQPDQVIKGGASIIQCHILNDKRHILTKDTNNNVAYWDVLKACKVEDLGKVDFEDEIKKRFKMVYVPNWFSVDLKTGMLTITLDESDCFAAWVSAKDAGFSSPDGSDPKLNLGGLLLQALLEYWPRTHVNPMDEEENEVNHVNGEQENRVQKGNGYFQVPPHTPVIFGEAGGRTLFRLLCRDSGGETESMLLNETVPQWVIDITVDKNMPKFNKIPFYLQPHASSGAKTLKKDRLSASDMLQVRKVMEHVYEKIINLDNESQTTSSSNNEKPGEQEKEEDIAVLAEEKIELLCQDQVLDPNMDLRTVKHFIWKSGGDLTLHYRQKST
Format: biochemical
How it was run: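 Ub-Rh110 (25 nM, ≪Km) cleavage read at ex 485/em 535 in Tris pH 8.0, CaCl2, GSH, Prionex, Triton X-100. The screen used 10 µM compound, 100 pM USP1/UAF1 and 45 min at RT.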
With `CC(C)c1ncccc1-c1ncc2[nH]c(=O)n(Cc3ccc(-n4ccc(C5CCN(C)CC5)n4)cc3)c2n1` [Compound I-442, 2-(2-isopropylpyridin-3-yl)-9-(4-(3-(1-methylpiperidin-4-yl)-1H-pyrazol-1-yl)benzyl)-7,9-dihydro-8H-purin-8-one] the IC50 was over 2000 nM. Work on `Cc1cc(C(=O)N(C)C)nn1-c1ccc(Cn2c(=O)[nH]c3cnc(-c4ccccc4C4CC4)nc32)cc1` [Compound I-504, 1-(4-((2-(2-Cyclopropylphenyl)-8-oxo-7,8-dihydro-9H-purin-9-yl)methyl)phenyl)-N,N,5-trimethyl-1H-pyrazole-3-carboxamide] yielded an IC50 of 50 to 200 nM. In the case of `CC(C)c1ccccc1-c1ncc2[nH]c(=O)n(Cc3ccc(-n4cc([C@@H](C)O)nn4)cc3)c2n1` [Compound I-347, (R)-9-(4-(4-(1-hydroxyethyl)-1H-1,2,3-triazol-1-yl)benzyl)-2-(2-isopropylphenyl)-7,9-dihydro-8H-purin-8-one], the IC50 is reported as over 2000 nM. For `COc1cc(C(F)(F)F)nn1-c1ccc(Cn2c(=O)[nH]c3cnc(-c4cccnc4C(C)C)nc32)cc1` [Compound I-60, 2-(2-isopropylpyridin-3-yl)-9-(4-(5-methoxy-3-(trifluoromethyl)-1H-pyrazol-1-yl)benzyl)-7,9-dihydro-8H-purin-8-one], the IC50 was under 50 nM. Molecule `COc1ccc(-c2ncc3[nH]c(=O)n(Cc4ccc(-c5nc(C(F)(F)F)cn5C)cc4)c3n2)c(C)n1` [Compound I-73, 2-(6-methoxy-2-methylpyridin-3-yl)-9-(4-(1-methyl-4-(trifluoromethyl)-1H-imidazol-2-yl)benzyl)-7,9-dihydro-8H-purin-8-one] has an IC50 of under 50 nM. `COC(C)CCOc1ncccc1-c1ncc2[nH]c(=O)n(Cc3ccc(-c4nc(C(F)(F)F)cn4C)cc3)c2n1` (centres unmarked) [Compound I-426, 2-(2-(3-methoxybutoxy)pyridin-3-yl)-9-(4-(1-methyl-4-(trifluoromethyl)-1H-imidazol-2-yl)benzyl)-7,9-dihydro-8H-purin-8-one] gave an IC50 of under 50 nM. Molecule `Cc1cc(Cl)nn1-c1ccc(Cn2c(=O)[nH]c3cnc(-c4cccnc4C(C)C)nc32)cc1` [Compound I-52, 9-(4-(3-chloro-5-methyl-1H-pyrazol-1-yl)benzyl)-2-(2-isopropylpyridin-3-yl)-7,9-dihydro-8H-purin-8-one] has an IC50 of under 50 nM. `COc1cccc(-c2ncc3[nH]c(=O)n(Cc4ccc(-n5cccn5)cc4)c3n2)c1C(C)C` [Compound I-92, 9-(4-(1H-pyrazol-1-yl)benzyl)-2-(2-isopropyl-3-methoxyphenyl)-7,9-dihydro-8H-purin-8-one] gave an IC50 of 200 to 2000 nM. `COc1cc(C)n(-c2ccc(Cn3c(=O)[nH]c4cnc(-c5cccnc5C(C)C)nc43)cc2)n1` [Compound I-78, 2-(2-isopropylpyridin-3-yl)-9-(4-(3-methoxy-5-methyl-1H-pyrazol-1-yl)benzyl)-7,9-dihydro-8H-purin-8-one] was tested, and the IC50 was under 50 nM. In the case of `Cn1cc(C(F)(F)F)nc1-c1ccc(Cn2c(=O)[nH]c3cnc(-c4cccnc4C(F)F)nc32)cc1` [Compound I-64, 2-(2-(difluoromethyl)pyridin-3-yl)-9-(4-(1-methyl-4-(trifluoromethyl)-1H-imidazol-2-yl)benzyl)-7,9-dihydro-8H-purin-8-one], the IC50 is reported as 50 to 200 nM. For `CC(C)NC(=O)N1CCC(F)(Cn2c(=O)[nH]c3cnc(-c4ccccc4C(C)C)nc32)CC1` [Compound I-487, 4-fluoro-N-isopropyl-4-((2-(2-isopropylphenyl)-8-oxo-7,8-dihydro-9H-purin-9-yl)methyl)piperidine-1-carboxamide], the IC50 was over 2000 nM. Molecule `CC(C)c1cccc(F)c1-c1ncc2c(n1)n(Cc1ccc(-n3cccn3)cc1)c(=O)n2C` [Compound I-11, 9-(4-(1H-pyrazol-1-yl)benzyl)-2-(2-fluoro-6-isopropylphenyl)-7-methyl-7,9-dihydro-8H-purin-8-one] has an IC50 of under 50 nM. Work on `Cc1coc(-c2ccc(Cn3c(=O)n(C)c4cnc(-c5ccccc5C(C)C)nc43)cc2)n1` [Compound I-290, 2-(2-isopropylphenyl)-7-methyl-9-(4-(4-methyloxazol-2-yl)benzyl)-7,9-dihydro-8H-purin-8-one] yielded an IC50 of under 50 nM. `CC(C)c1ccccc1-c1ncc2[nH]c(=O)n(CC3(F)CCN(C(=O)OC(C)(C)C)CC3)c2n1` [Compound I-220, tert-butyl 4-fluoro-4-((2-(2-isopropylphenyl)-8-oxo-7,8-dihydro-9H-purin-9-yl)methyl)piperidine-1-carboxylate] gave an IC50 of 50 to 200 nM. In the case of `CC(C)c1ccccc1-c1ncc2[nH]c(=O)n([C@@H]3CC[C@H]3c3ccc(-n4cccn4)cc3)c2n1` [Compound I-163, 9-((1R,2S)-2-(4-(1H-pyrazol-1-yl)phenyl)cyclobutyl)-2-(2-isopropylphenyl)-7,9-dihydro-8H-purin-8-one], the IC50 is reported as under 50 nM. `CCC1CCCCN1C(=O)c1ccc(Cn2c(=O)[nH]c3cnc(-c4ccccc4C(C)C)nc32)cc1` (centres unmarked) [Compound I-397, 9-(4-(2-ethylpiperidine-1-carbonyl)benzyl)-2-(2-isopropylphenyl)-7,9-dihydro-8H-purin-8-one] showed an IC50 of under 50 nM. For `CC(C)c1ccccc1-c1ncc2[nH]c(=O)n(Cc3ccc(C(=O)N4CCOCC4)cc3)c2n1` [Compound I-363, 2-(2-isopropylphenyl)-9-(4-(morpholine-4-carbonyl)benzyl)-7,9-dihydro-8H-purin-8-one], the IC50 was 50 to 200 nM. `CC(C)c1ccccc1-c1ncc2[nH]c(=O)n(Cc3ccc(-c4ncn(C)c4CO)cc3)c2n1` [Compound I-297, 9-(4-(5-(hydroxymethyl)-1-methyl-1H-imidazol-4-yl)benzyl)-2-(2-isopropylphenyl)-7,9-dihydro-8H-purin-8-one] showed an IC50 of 200 to 2000 nM. With `CC(C)c1c(F)cccc1-c1ncc2[nH]c(=O)n(Cc3ccc(-c4cn(C)cn4)cc3)c2n1` [Compound I-308, 2-(3-fluoro-2-isopropylphenyl)-9-(4-(1-methyl-1H-imidazol-4-yl)benzyl)-7,9-dihydro-8H-purin-8-one] the IC50 was under 50 nM. Molecule `Cc1cccc(-c2ncc3[nH]c(=O)n(Cc4ccc(-n5cccn5)cc4)c3n2)c1C(C)C` [Compound I-91, 9-(4-(1H-pyrazol-1-yl)benzyl)-2-(2-isopropyl-3-methylphenyl)-7,9-dihydro-8H-purin-8-one] has an IC50 of under 50 nM. `CC(C)c1ccccc1-c1ncc2c(n1)n(Cc1ccc(-c3ccnn3C(C)C)cc1)c(=O)n2C` [Compound I-284, 9-(4-(1-isopropyl-1H-pyrazol-5-yl)benzyl)-2-(2-isopropylphenyl)-7-methyl-7,9-dihydro-8H-purin-8-one] was tested, and the IC50 was 200 to 2000 nM. `Cc1cc(C(F)(F)F)nn1-c1ccc(Cn2c(=O)n(C)c3cnc(-c4cccnc4C(C)C)nc32)cc1` [Compound I-113, 2-(2-isopropylpyridin-3-yl)-7-methyl-9-(4-(5-methyl-3-(trifluoromethyl)-1H-pyrazol-1-yl)benzyl)-7,9-dihydro-8H-purin-8-one] was tested, and the IC50 was under 50 nM. In the case of `CCn1ccnc1-c1ccc(Cn2c(=O)n(C)c3cnc(-c4ccccc4C(C)C)nc32)cc1` [Compound I-496, 9-(4-(1-ethyl-1H-imidazol-2-yl)benzyl)-2-(2-isopropylphenyl)-7-methyl-7,9-dihydro-8H-purin-8-one], the IC50 is reported as under 50 nM. `Cn1cc(C(F)(F)F)nc1-c1ccc(Cn2c(=O)n(C)c3cnc(-c4cccnc4N4CC(F)C4)nc32)cc1` [Compound I-134, 2-(2-(3-fluoroazetidin-1-yl)pyridin-3-yl)-7-methyl-9-(4-(1-methyl-4-(trifluoromethyl)-1H-imidazol-2-yl)benzyl)-7,9-dihydro-8H-purin-8-one] gave an IC50 of 50 to 200 nM. `CC(C)c1c(F)cccc1-c1ncc2[nH]c(=O)n(Cc3ccc(-c4nc(C(F)(F)F)cn4C)cc3)c2n1` [Compound I-193, 2-(3-fluoro-2-isopropylphenyl)-9-(4-(1-methyl-4-(trifluoromethyl)-1H-imidazol-2-yl)benzyl)-7,9-dihydro-8H-purin-8-one] was tested, and the IC50 was under 50 nM. `CC(=O)N1CCC(c2ccn(-c3ccc(Cn4c(=O)[nH]c5cnc(-c6cccnc6OCC(F)(F)F)nc54)cc3)n2)CC1` [Compound I-466, 9-(4-(3-(1-acetylpiperidin-4-yl)-1H-pyrazol-1-yl)benzyl)-2-(2-(2,2,2-trifluoroethoxy)pyridin-3-yl)-7,9-dihydro-8H-purin-8-one] was tested, and the IC50 was 200 to 2000 nM. `Cc1cc(C)n(-c2cnc(Cn3c(=O)[nH]c4cnc(-c5ccccc5C(C)C)nc43)nc2)n1` [Compound I-511, 9-((5-(3,5-Dimethyl-1H-pyrazol-1-yl)pyrimidin-2-yl)methyl)-2-(2-isopropylphenyl)-7,9-dihydro-8H-purin-8-one] showed an IC50 of 200 to 2000 nM. In the case of `CC(C)c1ccccc1-c1ncc2[nH]c(=O)n(Cc3ccc(C(=O)N4CC5(CCCO5)C4)cc3)c2n1` [Compound I-393, 9-(4-(5-oxa-2-azaspiro[3.4]octane-2-carbonyl)benzyl)-2-(2-isopropylphenyl)-7,9-dihydro-8H-purin-8-one], the IC50 is reported as 200 to 2000 nM. `CC(C)c1ccccc1-c1ncc2c(n1)n(Cc1ccc(-n3ccc(C4CCNCC4)n3)cc1)c(=O)n2C` [Compound I-433, 2-(2-isopropylphenyl)-7-methyl-9-(4-(3-(piperidin-4-yl)-1H-pyrazol-1-yl)benzyl)-7,9-dihydro-8H-purin-8-one] showed an IC50 of 200 to 2000 nM. For `CC(C)c1ccccc1-c1ncc2[nH]c(=O)n([C@H](C)c3ccc(-n4ccnn4)cc3)c2n1` [Compound I-148, (R)-9-(1-(4-(1H-1,2,3-triazol-1-yl)phenyl)ethyl)-2-(2-isopropylphenyl)-7,9-dihydro-8H-purin-8-one], the IC50 was 200 to 2000 nM. Molecule `Cc1nc(N2CCC(F)(Cn3c(=O)[nH]c4cnc(-c5ccccc5C(C)C)nc43)CC2)c(C)s1` [Compound I-514, 9-((1-(2,5-Dimethylthiazol-4-yl)-4-fluoropiperidin-4-yl)methyl)-2-(2-isopropylphenyl)-7,9-dihydro-8H-purin-8-one] has an IC50 of under 50 nM. `CC(C)c1ccccc1-c1ncc2c(n1)n(Cc1ccc(-c3cn(C)nn3)cc1)c(=O)n2C` [Compound I-287, 2-(2-isopropylphenyl)-7-methyl-9-(4-(1-methyl-1H-1,2,3-triazol-4-yl)benzyl)-7,9-dihydro-8H-purin-8-one] was tested, and the IC50 was under 50 nM.

Source: US10189841B2, “Purinones as ubiquitin-specific protease 1 inhibitors” (Forma Therapeutics, Inc., priority 2015, dated 2019)
